According to article PMC8617627, “Novel DYRK1A Inhibitor Rescues Learning and Memory Deficits in a Mouse Model of Down Syndrome” (Pharmaceuticals, 2021):
Where two headings read alike, the source gives them in different places.

Assays:
Experiment in all cases: Kinase profile (33P ATP filter binding)
Assay type in all cases: biochemical
Aurora A = target: T1, Aurora A (Homo sapiens, UniProt O14965); conditions: for remaining activity at 1 µM / remaining activity at 100 µM: read-out: Remaining protein kinase activity
T1 sequence (O14965 1-403): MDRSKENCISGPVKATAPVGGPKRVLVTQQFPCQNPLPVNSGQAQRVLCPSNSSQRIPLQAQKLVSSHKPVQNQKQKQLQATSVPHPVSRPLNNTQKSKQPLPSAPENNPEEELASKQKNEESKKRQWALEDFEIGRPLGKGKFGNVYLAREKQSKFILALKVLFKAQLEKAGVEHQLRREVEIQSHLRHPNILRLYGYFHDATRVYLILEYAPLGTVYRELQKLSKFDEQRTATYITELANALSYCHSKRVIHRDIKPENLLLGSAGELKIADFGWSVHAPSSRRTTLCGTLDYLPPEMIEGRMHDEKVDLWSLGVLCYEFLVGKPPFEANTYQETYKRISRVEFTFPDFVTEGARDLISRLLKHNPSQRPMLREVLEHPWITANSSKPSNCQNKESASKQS
Method: (§1) The compounds were diluted to the appropriate concentration. The compounds were added to a “mother plate” consisting of samples, controls, and blanks. These serve as the source for “daughter plates” which are stored at −20 °C until assay initiation. Protein Kinases: Enzyme/Substrate mixture was added to the compound, and the compounds were incubated for five minutes at room temperature (RT). ^33P ATP was added to the compounds to initiate the assay. Orthophosphoric acid was added to the compounds to halt the assay. Assay components were harvested onto P81 filter plates, filter plates were air-dried, scintillation fluid was added to plates, and counts were read on a Topcount NXT. A mean percentage activity was calculated.

CAMK1 = CAMK1 (Homo sapiens, UniProt Q14012); conditions: read-out: Remaining protein kinase activity
Sequence of CAMK1 (Q14012 whole entry): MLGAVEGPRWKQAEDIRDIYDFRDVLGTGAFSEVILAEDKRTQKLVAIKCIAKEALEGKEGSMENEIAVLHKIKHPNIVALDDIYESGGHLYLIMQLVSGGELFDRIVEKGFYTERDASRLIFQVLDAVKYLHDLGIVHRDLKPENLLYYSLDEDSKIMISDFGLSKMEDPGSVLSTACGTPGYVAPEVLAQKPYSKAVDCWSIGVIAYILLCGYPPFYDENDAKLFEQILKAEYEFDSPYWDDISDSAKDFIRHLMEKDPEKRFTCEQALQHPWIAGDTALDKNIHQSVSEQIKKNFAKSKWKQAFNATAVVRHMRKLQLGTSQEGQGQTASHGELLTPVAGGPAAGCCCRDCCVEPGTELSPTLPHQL
Method: as §1

IGF-1R = IGF-1R (Homo sapiens, UniProt P08069); conditions: read-out: Remaining protein kinase activity
Sequence of IGF-1R (P08069 31-1367): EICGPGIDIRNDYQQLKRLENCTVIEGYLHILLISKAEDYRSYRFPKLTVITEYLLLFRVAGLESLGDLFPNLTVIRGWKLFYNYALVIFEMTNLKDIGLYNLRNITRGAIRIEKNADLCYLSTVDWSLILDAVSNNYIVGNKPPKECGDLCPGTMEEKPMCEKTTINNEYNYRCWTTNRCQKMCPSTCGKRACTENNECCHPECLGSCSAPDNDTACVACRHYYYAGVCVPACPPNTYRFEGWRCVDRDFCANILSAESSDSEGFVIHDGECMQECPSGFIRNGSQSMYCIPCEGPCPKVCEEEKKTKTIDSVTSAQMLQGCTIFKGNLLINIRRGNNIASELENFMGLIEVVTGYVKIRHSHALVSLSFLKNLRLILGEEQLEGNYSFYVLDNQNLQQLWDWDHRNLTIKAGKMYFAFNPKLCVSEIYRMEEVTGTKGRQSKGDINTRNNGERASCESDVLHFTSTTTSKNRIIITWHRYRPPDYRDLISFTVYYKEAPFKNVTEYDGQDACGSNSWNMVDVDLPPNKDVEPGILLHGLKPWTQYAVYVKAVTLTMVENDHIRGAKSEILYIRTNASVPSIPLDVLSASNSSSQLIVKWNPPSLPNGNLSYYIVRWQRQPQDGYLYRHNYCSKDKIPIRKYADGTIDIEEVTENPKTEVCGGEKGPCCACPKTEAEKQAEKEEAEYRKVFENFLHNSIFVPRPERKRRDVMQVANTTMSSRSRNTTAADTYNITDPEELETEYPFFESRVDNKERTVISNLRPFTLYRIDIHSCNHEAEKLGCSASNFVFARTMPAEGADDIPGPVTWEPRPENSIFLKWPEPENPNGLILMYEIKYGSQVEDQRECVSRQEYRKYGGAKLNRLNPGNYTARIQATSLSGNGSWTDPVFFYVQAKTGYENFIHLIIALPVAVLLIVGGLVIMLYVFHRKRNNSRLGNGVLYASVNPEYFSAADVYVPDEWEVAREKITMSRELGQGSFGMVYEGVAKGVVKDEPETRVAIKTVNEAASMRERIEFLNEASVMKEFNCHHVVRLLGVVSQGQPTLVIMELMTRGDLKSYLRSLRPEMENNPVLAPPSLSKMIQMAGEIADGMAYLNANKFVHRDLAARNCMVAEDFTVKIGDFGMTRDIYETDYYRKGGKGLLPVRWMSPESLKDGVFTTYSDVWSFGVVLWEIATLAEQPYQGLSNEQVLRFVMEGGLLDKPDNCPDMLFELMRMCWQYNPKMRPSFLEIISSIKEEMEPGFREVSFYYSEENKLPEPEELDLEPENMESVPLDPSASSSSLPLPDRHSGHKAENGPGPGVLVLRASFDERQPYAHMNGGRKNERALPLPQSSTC
Method: as §1

IRAK4 = target: T2, IRAK4 (Homo sapiens, UniProt Q9NWZ3)
T2 sequence (Q9NWZ3 1-460): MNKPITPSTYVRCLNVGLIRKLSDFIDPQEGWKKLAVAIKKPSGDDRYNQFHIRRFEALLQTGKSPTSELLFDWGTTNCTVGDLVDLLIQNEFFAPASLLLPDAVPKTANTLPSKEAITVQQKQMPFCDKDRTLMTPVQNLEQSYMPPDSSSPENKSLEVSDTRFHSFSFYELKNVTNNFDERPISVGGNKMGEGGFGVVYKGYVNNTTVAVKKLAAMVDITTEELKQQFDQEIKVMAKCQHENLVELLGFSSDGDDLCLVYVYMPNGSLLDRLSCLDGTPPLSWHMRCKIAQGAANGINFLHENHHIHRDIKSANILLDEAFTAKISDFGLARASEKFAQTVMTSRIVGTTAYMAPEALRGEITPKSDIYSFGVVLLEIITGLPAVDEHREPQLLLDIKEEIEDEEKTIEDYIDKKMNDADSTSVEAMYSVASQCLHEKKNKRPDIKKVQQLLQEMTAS
Method: as §1

PAK2 = PAK2 (Homo sapiens, UniProt Q13177); conditions: read-out: Remaining protein kinase activity
Sequence of PAK2 (Q13177 whole entry): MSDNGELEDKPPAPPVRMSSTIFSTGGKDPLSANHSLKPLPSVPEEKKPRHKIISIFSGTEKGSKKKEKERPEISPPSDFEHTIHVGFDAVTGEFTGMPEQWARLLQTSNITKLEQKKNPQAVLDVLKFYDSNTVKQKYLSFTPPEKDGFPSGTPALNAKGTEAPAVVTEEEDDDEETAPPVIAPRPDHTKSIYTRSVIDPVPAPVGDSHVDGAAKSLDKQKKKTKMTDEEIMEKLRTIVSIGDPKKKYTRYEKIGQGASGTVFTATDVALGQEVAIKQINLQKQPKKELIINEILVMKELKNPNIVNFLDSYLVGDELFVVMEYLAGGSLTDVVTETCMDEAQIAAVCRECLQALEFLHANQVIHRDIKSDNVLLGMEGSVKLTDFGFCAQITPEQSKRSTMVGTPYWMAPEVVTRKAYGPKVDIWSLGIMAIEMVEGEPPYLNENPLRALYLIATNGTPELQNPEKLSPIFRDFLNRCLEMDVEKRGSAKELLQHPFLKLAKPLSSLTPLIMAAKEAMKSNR
Method: as §1

PDK1 = target: T3, PDK1 (Homo sapiens, UniProt O15530); conditions: read-out: Remaining protein kinase activity
T3 sequence (O15530 1-556): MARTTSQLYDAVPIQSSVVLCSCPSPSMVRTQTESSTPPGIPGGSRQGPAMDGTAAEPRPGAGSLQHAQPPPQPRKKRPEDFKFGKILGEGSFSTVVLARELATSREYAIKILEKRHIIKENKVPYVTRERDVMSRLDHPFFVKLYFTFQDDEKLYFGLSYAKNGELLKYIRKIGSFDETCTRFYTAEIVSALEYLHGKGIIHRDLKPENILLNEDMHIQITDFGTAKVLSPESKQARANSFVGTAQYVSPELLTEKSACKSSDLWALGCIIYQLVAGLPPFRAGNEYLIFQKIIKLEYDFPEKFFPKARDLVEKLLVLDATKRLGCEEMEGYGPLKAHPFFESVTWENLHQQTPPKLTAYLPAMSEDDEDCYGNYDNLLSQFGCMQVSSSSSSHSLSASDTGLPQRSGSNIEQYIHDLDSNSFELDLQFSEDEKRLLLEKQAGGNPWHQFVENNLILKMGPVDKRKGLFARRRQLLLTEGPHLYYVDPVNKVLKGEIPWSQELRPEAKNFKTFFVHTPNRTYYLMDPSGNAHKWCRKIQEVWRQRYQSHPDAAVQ
Method: as §1

PRAK = target: T4, PRAK (Homo sapiens, UniProt Q8IW41); conditions: read-out: Remaining protein kinase activity
T4 sequence (Q8IW41 1-473): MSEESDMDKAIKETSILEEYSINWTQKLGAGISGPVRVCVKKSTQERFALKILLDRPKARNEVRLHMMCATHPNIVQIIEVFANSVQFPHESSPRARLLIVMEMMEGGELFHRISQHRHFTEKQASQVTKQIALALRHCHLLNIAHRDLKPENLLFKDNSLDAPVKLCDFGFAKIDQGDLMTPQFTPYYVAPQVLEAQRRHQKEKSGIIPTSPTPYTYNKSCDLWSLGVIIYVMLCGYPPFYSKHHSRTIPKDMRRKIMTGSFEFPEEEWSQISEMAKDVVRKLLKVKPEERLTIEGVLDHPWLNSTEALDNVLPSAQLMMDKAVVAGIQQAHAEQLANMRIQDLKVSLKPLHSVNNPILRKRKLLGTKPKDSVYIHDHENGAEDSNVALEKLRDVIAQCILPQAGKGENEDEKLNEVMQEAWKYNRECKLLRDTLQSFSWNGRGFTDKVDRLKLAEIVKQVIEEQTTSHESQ
Method: as §1

COc1ccc2sc(-c3cncc(NC(C)=O)c3)nc2c1 [PST-001, N-(5-(5-Methoxybenzo[d]thiazol-2-yl)pyridin-3-yl)acetamide]
Effect on Aurora A (Aurora A; in words): moderately activated | remaining activity at 1 µM (Aurora A): 133% | remaining activity at 100 µM (Aurora A): 136% | remaining activity at 100 µM (CAMK1): 100% | remaining activity at 1 µM (IGF-1R): 104% | remaining activity at 100 µM (IGF-1R): 104% | Remaining protein kinase activity (IRAK4; 1 μM): 88% | Remaining protein kinase activity (IRAK4; 100 μM): 32% | remaining activity at 1 µM (PAK2): 114% | remaining activity at 100 µM (PAK2): 122% | remaining activity at 1 µM (PDK1): 110% | remaining activity at 100 µM (PDK1): 105% | remaining activity at 1 µM (PRAK): 114% | remaining activity at 100 µM (PRAK): 116%

COc1ccc2sc(-c3cncc(N)c3)nc2c1 [compound 1, 5-(5-Methoxybenzo[d]thiazol-2-yl)pyridin-3-amine]
remaining activity at 1 µM (Aurora A; Aurora A, 1 μM): 132% | remaining activity at 100 µM (Aurora A; Aurora A, 100 μM): 97% | remaining activity at 1 µM (CAMK1; CAMK1, 1 μM): 99% | remaining activity at 100 µM (CAMK1; CAMK1, 100 μM): 52% | remaining activity at 1 µM (IGF-1R; IGF-1R, 1 μM): 96% | remaining activity at 100 µM (IGF-1R; IGF-1R, 100 μM): 68% | Remaining protein kinase activity (IRAK4; 1 μM): 85% | Remaining protein kinase activity (IRAK4; 100 μM): 18% | remaining activity at 1 µM (PAK2; PAK2, 1 μM): 110% | remaining activity at 100 µM (PAK2; PAK2, 100 μM): 103% | remaining activity at 1 µM (PDK1; PDK1, 1 μM): 104% | remaining activity at 100 µM (PDK1; PDK1, 100 μM): 67% | remaining activity at 1 µM (PRAK; PRAK, 1 μM): 128% | remaining activity at 100 µM (PRAK; PRAK, 100 μM): 36%
